{"source": "patent US20110104167A1", "about": "“Compositions and Methods for Diagnosing and Treating Insulin Resistance” (YEDA RESEARCH AND DEVELOPMENT CO. LTD., priority 2004, published 2011)", "molecules": {"B1": {"name": "CIP: calf intestine alkaline phosphatase (protein, UniProt P19111 20-506, looked up)", "Intestinal-type alkaline …": "LVPVEEEDPAFWNRQAAQALDVAKKLQPIQTAAKNVILFLGDGMGVPTVTATRILKGQMNGKLGPETPLAMDQFPYVALSKTYNVDRQVPDSAGTATAYLCGVKGNYRTIGVSAAARYNQCKTTRGNEVTSVMNRAKKAGKSVGVVTTTRVQHASPAGAYAHTVNRNWYSDADLPADAQMNGCQDIAAQLVNNMDIDVILGGGRKYMFPVGTPDPEYPDDASVNGVRKRKQNLVQAWQAKHQGAQYVWNRTALLQAADDSSVTHLMGLFEPADMKYNVQQDHTKDPTLQEMTEVALRVVSRNPRGFYLFVEGGRIDHGHHDDKAYMALTEAGMFDNAIAKANELTSELDTLILVTADHSHVFSFGGYTLRGTSIFGLAPSKALDSKSYTSILYGNGPGYALGGGSRPDVNDSTSEDPSYQQQAAVPQASETHGGEDVAVFARGPQAHLVHGVEEETFVAHIMAFAGCVEPYTDCNLPAPTTATSIPD"}}, "key": {"[1]": {"test_system": "CHO-T cells", "experiment": "Phosphorylation (mobility shift) of truncated IRS-1 PH/PTB constructs in CHO-T cells", "type": "cell-based, Chinese Hamster", "conditions": "25 nM calyculin A 60 min", "method": "(§1) FIGS. 7a-c show In vivo phosphorylation of PH/PTB-L in response to insulin. CHO-T cells were transiently transfected with pcDNA3-Myc-PH/PTB (1-1290 nt) or with an insert-free plasmid (control). Twenty-four hours post-transfection, the cells were deprived of serum for 16 h and were then treated with insulin for the indicated time periods. Cell extracts (100 μg) were resolved on 10% SDS-PAGE and immunoblotted with anti-pY or anti-Myc antibodies (FIG. 7a). In parallel, samples (100 μg, 40 μl) were incubated with 3 units (U) of calf intestine phosphatase (CIP) at 37° C. for 1 h. The samples were resolved on 10% SDS-PAGE and immunoblotted with anti-Myc antibodies (FIG. 7b). The results are of a representative of two experiments. FIG. 7c—CHO^PH/PTB-L cells were starved in serum-free F12 medium for 16 h. The cells were treated for 30 min with the indicated inhibitors prior to being treated with 100 nM insulin for 30 min. Cell extracts were prepared, samples were resolved on 10% SDS-PAGE and were immunoblotted with anti-Myc antibodies. Results are of a representative of three experiments.\nFIGS. 8a-b show the effects of insulin on Serine phosphorylation of Myc-PH/PTB-L^7A CHO-T cells were transiently transfected with constructs encoding Myc-PH/PTB-L (1-1290 nt), either wild type (WT) or the 7A mutant (FIG. 8a). Alternatively, the cells were transfected or with the constructs encoding Myc-PH/PTB-L (1-1290 nt; 1-430 aa) or Myc-PH/PTB-S (1-1095 nt; 1-365 aa, FIG. 8b). Following 24 hours in culture, the cells were incubated in serum-free F12 medium for 16 ch prior to being treated with insulin for the indicated times. Cell extracts were resolved on 10% SDS-PAGE and immunoblotted with anti-Myc antibodies. Results are of a representative of three experiments.\nFIGS. 9a-b show the effects of insulin and calyculin A on Ser phosphorylation of PH/PTB-L mutants. FIG. 9a—CHO-T cells were transiently transfected with constructs expressing either Myc-PH/PTB^WT or the following PH/PTB mutants: S336A, S407A, S408A, S407/8A and S3A (S336/407/408A). Following 24 hours the cells were deprived of serum for 16 h, and were treated with insulin for the indicated times. Cell extracts were resolved on 10% SDS-PAGE and immunoblotted with anti-Myc antibodies. The results are of a representative of two-three experiments. FIG. 9b—CHO-T cells were transiently transfected with pcDNA3-myc-PH/PTB^WT or pcDNA3-myc-PH/PTB^S408A. Following 24 hours the cells were starved for 16 h and were then treated either with 100 nM insulin for 30 min or with 25 nM calyculin A for 60 min. Cell extracts were resolved on 10% SDS-PAGE and were immunoblotted with anti-Myc antibodies. Results are of a representative of two experiments.\nPlasmids construction—i. Myc-tagged-IRS-1 The cDNA, encoding for the mouse IRS-1 in the pCNA-3 expression plasmid (35) was digested with Hind III and BspE-1. This deleted a 9 by fragment from the 5′-IRS-1 cDNA that was replaced by a double stranded synthetic oligonucleotide encoding the Myc tag and the missing amino-acids of IRS-1 (bold) […] (SEQ ID NO. 9). ii. Myc-tagged truncated IRS-1 (aa 1-430, PH/PTB-L) Myc-tagged mouse IRS-1 cDNA (N-terminus, 1-1290 nt), encoding for the first 430 aa of IRS-1, was PCR-amplified with the following primers. 5′-CAGGATCCGCATATGGAACAAAAGCTC-3′ (sense) (SEQ ID NO. 10); 5′-GAGAATTCATCAGGGACTAGAACCATA-3′ (anti-sense) (SEQ ID NO. 11), using as a template the pcDNA3-Myc-IRS-1 plasmid. The PCR product was ligated into a pGEM-T. The insert was excised from pGEM-T with BamH I and EcoR I (italic), and then was ligated into pcDNA3 at the same restriction sites to generate pcDNA3-Myc-IRS-1^PH/PTB-L. iii. Myc-tagged truncated IRS-1 (aa 1-365, PH/PTB-S) Myc-tagged mouse IRS-1 cDNA (N-terminus, 1-1095 nt), encoding for the first 365 aa of IRS-1, was PCR-amplified with the following primers: 5′ […]-3′ (sense) (SEQ ID NO. 12); 5′ […] 3′ (anti sense) (SEQ ID NO. 13) using as a template the pcDNA3-Myc-IRS-1. […]"}, "[2]": {"test_system": "S408 of IRS-1", "experiment": "In vivo phosphorylation of S408 of IRS-1 in cultured Fao cells", "type": "cell-based, rat", "method": "Following 48 hours, the cells were starved for 16 hours. The medium was removed and the cells were incubated with or without 100 nM insulin for the indicated times (FIG. 10a). Alternatively, the cells were incubated with insulin, SMase or calyculin A as indicated (FIG. 10b). Cytosolic extracts (100 μg) were resolved on 7.5% SDS-PAGE and immunoblotted with anti-phospho-Ser 408 antibody or anti-PY antibodies as indicated.\nInfection of Fao cells with adenovirus—Fao cells were grown in RPMI medium containing 10% FCS. At 70% confluence cells were infected with adenoviruses harboring the gene of interest at a titer of 7 10^7 PFU/ml. After incubation for 2 h hours at 37° C., the virus-containing medium was diluted 1:5 in fresh RPMI medium. After 24 h the medium was replaced with a fresh RPMI medium containing 10% FCS. 48 h post-infection the Fao cells were starved in serum-free RPMI for 16 h and were then subjected to the indicated treatments as described below.\nTreatment of cells and preparation of extracts—Virally-infected Fao cells were grown as described above. Nave Rat hepatoma (Fao) cells or CHO cells were grown in RPMI medium supplemented with 10% fetal calf serum as described (22). At 70-80% confluence, cells were deprived of serum for 16 h prior to each experiment, and were then incubated with inducers of insulin resistance and/or insulin. […]"}, "[3]": {"test_system": "IRS-1", "experiment": "Effect of proteosome inhibitor on IRS-1 protein content and Tyr phosphorylation", "type": "cell-based", "conditions": "not shown"}, "[4]": {"biological_target": "insulin receptor (IR) of Fao rat hepatoma cells (rat (Fao rat hepatoma cells)) (UniProt P15127)", "sequence (P15127 27-1383 limits assumed)": "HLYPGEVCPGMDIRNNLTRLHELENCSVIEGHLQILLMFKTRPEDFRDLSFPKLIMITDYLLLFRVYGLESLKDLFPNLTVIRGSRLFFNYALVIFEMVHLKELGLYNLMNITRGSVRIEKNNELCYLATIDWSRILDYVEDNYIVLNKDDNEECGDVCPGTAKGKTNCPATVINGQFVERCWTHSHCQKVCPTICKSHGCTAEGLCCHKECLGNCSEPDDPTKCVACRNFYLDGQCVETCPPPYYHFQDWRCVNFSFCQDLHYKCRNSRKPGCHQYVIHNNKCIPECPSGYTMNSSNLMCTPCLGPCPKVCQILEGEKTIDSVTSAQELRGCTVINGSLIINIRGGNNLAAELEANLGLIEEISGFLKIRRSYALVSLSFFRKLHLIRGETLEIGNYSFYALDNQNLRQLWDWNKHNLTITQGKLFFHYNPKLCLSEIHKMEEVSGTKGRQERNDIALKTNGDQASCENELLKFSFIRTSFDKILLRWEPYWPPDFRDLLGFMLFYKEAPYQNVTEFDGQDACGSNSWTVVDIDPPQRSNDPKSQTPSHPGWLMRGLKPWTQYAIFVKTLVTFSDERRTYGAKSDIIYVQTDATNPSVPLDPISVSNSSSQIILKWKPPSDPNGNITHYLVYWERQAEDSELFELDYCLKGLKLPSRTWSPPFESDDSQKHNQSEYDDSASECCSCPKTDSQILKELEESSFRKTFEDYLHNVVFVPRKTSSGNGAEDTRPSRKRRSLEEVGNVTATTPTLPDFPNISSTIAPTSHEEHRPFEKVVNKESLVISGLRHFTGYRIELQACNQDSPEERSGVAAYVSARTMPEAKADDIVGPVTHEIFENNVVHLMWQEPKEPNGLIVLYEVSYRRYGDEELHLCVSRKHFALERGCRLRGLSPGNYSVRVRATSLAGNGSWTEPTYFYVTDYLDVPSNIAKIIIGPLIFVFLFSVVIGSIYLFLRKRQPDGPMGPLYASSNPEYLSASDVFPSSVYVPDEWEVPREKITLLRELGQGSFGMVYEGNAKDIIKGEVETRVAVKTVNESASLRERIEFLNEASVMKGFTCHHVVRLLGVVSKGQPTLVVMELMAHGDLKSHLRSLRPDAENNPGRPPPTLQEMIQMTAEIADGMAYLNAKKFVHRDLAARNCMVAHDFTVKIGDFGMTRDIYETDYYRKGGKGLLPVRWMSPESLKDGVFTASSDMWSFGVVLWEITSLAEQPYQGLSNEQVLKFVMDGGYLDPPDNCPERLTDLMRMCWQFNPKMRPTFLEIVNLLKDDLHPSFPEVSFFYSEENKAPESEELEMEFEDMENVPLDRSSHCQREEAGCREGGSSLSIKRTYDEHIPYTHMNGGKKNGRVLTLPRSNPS", "experiment": "cell-based or functional assay"}, "[5]": {"test_system": "CHO-T cells", "experiment": "Insulin-induced Tyr phosphorylation of IRS-1 in stably transfected CHO-T cells", "type": "cell-based, Chinese Hamster", "method": "FIGS. 1a-c show Tyrosine (Tyr) phosphorylation of IRS-1^7A and its interactions with IR. FIG. 1a—monolayers of CHO-T cells stably overexpressing either WT-IRS-1 (CHO-T^WT) or IRS-1^7A (CHO-T^7A) at 80% confluence (grown in 6 cm plates) were deprived of serum for 16 h prior to the experiment. The cells were then incubated with insulin for the indicated times at 37° C. Cells extracts (100 μg) were resolved on 7.5 SDS-PAGE and immunoblotted with the indicated antibodies. The results are of a representative of six experiments. FIG. 1b—IRS-1 was isolated from CHO-T^WT or CHO-T^7A cells. In vitro phosphorylation of IRS-1^WT and IRS-1^7A by Insulin receptor (IR) was effected as described under “Materials and Experimental Procedures” section of the Examples section which follows. The reaction mixture was subjected to immunoprecipitation with anti-IRS-1 antibodies. Immunocomplexes were resolved on 7.5 SDS-PAGE and immunoblotted with anti-phosphotyrosine (pY) or anti IRS-1 antibodies. FIG. 1c—CHO-T^WT (expressing wild type IRS-1) and CHO-T^7A (expressing the 7A IRS-1 mutant) cells were deprived of serum for 16 h prior to the experiment. The cells were stimulated with 100 nM insulin for the indicated times at 37° C. Cell extracts were prepared and samples (1 mg) were bound to immobilized IR. […]"}, "[6]": {"test_system": "insulin receptor", "conditions": "Fao cells, 10^−7M insulin, prolonged; cited from earlier work"}, "[7]": {"biological_target": "T1, Myc-PH/PTB-L (Mus musculus, UniProt P35569)", "T1 construct": "Myc-tagged truncated IRS-1 (aa 1-430, PH/PTB-L); expressed in transfected cells; host or cells: CHO-T cells, transient transfection with pcDNA3-Myc-PH/PTB (1-1290 nt)", "T1 sequence (P35569 1-430)": "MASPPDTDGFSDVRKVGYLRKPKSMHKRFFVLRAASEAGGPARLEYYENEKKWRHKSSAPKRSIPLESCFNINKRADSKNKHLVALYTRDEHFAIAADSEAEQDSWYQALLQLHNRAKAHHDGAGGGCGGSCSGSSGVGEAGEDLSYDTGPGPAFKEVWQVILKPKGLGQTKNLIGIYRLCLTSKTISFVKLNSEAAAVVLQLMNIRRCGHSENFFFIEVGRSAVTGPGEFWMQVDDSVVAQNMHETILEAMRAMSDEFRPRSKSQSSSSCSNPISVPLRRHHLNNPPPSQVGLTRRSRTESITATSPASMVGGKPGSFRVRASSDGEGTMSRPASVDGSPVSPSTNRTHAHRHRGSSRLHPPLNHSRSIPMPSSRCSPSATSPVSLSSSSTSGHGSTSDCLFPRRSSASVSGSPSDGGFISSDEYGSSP", "experiment": "In vitro dephosphorylation of Myc-PH/PTB-L with calf intestine alkaline phosphatase", "type": "biochemical", "conditions": "3 units CIP, 37° C., 1 h", "method": "as §1"}}, "note": "Where a SMILES comes first, the peptide text is derived from it. The star is where a group is joined. Cbz = O=C(OCc1ccccc1)*", "data": [{"molecule": "COC[C@@H]([C@H](O)[C@H](O)C(=O)NCC[C@H](C)c1nc(/C=C/C[C@@H]2O[C@]3(C[C@@H](O)[C@@H]2C)O[C@H]([C@H](C[C@H](O)[C@H](C)[C@H](O)[C@H](C)/C=C(C)/C(C)=C/C=C/C(C)=C\\C#N)OC)[C@H](OP(=O)(O)O)C3(C)C)co1)N(C)C", "note": "[Calyculin A]", "values": [{"measurement": "Ser phosphorylation (mobility shift) of Myc-PH/PTB-L^WT", "setting": "[1]", "value": "triggers Ser phosphorylation"}, {"measurement": "mobility shift when Ser408 was mutated to Ala", "setting": "[1]", "value": "significantly reduced"}, {"measurement": "in vivo phosphorylation of S408", "setting": "[2]; Fao cells infected with IRS-1^WT", "value": "induced phosphorylation of S408"}]}, {"molecule": "CC(C)C[C@@H](C=O)NC(=O)[C@H](CC(C)C)NC(=O)[C@H](CC(C)C)NC(=O)OCc1ccccc1", "note": "[MG-132] (Cbz-Leu-Leu-Leu-aldehyde)", "values": [{"measurement": "effect on protein content and Tyr phosphorylation patterns of IRS-1^7A and IRS-1^WT", "setting": "[3]", "value": "did not alter significantly"}]}, {"molecule": "Myc-IRS-1^WT (Myc-tagged wild-type mouse IRS-1 expressed in Fao cells from an adenoviral construct) (from UniProt P35569 4-1233)", "values": [{"measurement": "reduction of Tyr phosphorylation content following prolonged (60 min) insulin treatment", "setting": "[4]", "value": 55, "unit": "%"}]}, {"molecule": "insulin: human insulin used as stimulus", "values": [{"measurement": "insulin treatment time at which maximal Tyr phosphorylation of IRS-1 was detected", "setting": "[5]", "value": 2, "unit": "min"}, {"measurement": "reduction in ability of IRS-1 to interact with the insulin receptor", "setting": "[6]", "value": "> 40", "unit": "%"}, {"measurement": "incubation time required for maximal phosphorylation of Ser408", "setting": "[2]; 100 nM insulin", "value": "30 to 60", "unit": "min"}]}, {"molecule": "B1", "values": [{"measurement": "effect on mobility shift of PH/PTB-L from insulin-treated cells", "setting": "[7]", "value": "abolished the mobility shift"}]}]}
